The target in data set [1] is T1, GSPT2 (Homo sapiens, UniProt Q8IYD1+Q96SW2).
T1 construct: endogenous in cells; host or cells: RKO WT or RKO CRBN KO
In words: Western blot analysis of GSPT2 degradation in HEK293T cells. Format: cell-based. The following applies: 0 to 10 μM, 16 h. Here is the method:
Figure 3 FL2-14 is a selective GSPT2 molecular glue degrader. (A) Structure of FL2-14 comprising fluorosulfate scaffold FL2 (black) and tail group modification 14 (blue). (B) DMSO-normalized quantitative proteomics after 16 h of treatment with FL2-14 (10 μM) in RKO WT (n = 2). […] (C) Structural alignment of AlphaFold models of GSPT1 (AF-P15170-F1-model_v4 in gray) and GSPT2 (AF-Q8IYD1-F1-model_v4 in blue). (D) Validation of GSPT2 degradation by FL2-14. […] (E) Dose–response of FL2-14 in RKO and HEK293T cells. Cells were treated with the FL2-14 (0 to 10 μM) for 16 h. (F) Degradation of GSPT2^WT or GSPT2^G566N. […]
spectra were searched against the human proteome (Canonical, reviewed, 20 304 sequences) and appended known contaminants and streptavidin, with a maximum of two allowable miscleavage sites. The search was performed with full tryptic digestion. […] Peptide spectrum matches (PSMs) with precursor isolation interference values of > 70, average TMTpro reporter ion S/N < 10 and SPS Mass Matches < 65 % were excluded from quantification. Both unique and razor peptides were used for TMT quantification. […] Protein ratios are directly calculated from the grouped protein abundances using an ANOVA hypothesis test. Adjusted p‐values are calculated using the Benjamini‐Hochberg method. […]
In general terms: Immunoblotting shows a protein as a band on a membrane.

Data set [2] addresses T2, recombinant DDB1-CRBN (Homo sapiens, UniProt Q96SW2).
T2 construct: His; made in house; host or cells: High Five insect cells (baculovirus made and propagated in SF9 cells)
In words: Fluorescence polarization-based competition assay for CRBN binding. The conditions noted are these: 200 nM CRBN-DDB1, 20 nM pomalidomide-fluorescein tracer 16, triplicates; read-out: FP_CRBN_binding: CRBN binding affinity, EC50.

Data set [3] is described as follows: CellTiter-Glo cytotoxicity of selected compounds (manual, 72 h). Format: cell-based, human. The conditions noted are these: human, up to 10 μM. The method, then: Assessment of gene expression and essentiality in RKO WT
Fluorescence Polarization‐based competition assay
EC50 values were calculated with GraphPad Prism […]
the FP value of free tracer. […]
instructions. […] For the screening of the whole SuFEx
Data visualization was done with seaborn
(https://seaborn.pydata.org, version 0.12.2). […]
compounds. (F) Analysis of the cytotoxicity of compounds with treatment‐centric features related to FL2‐ […]
Synthesis and in Vitro Evaluation of Diverse Heterocyclic Diphenolic Compounds as Inhibitors of DYRK1A.
(7) Zhang, J.‐H.; Chung, T. D. Y.; Oldenburg, K. R. A Simple Statistical Parameter for Use in Evaluation and Validation of High Throughput Screening Assays. SLAS Discov.
(In ATP-based viability assays light output follows the ATP content of the culture.)

Structures are written as SMILES. A value given as a limit tells only on which side of the number the result lay.

For the compound `CN(Cc1ncc(C2CC2)o1)S(=O)(=O)Oc1ccc(Nc2ccc3c(c2)C(=O)N(C2CCC(=O)NC2=O)C3=O)cc1` (stereo not shown) [FL2-14], in data set [1], the “GSPT2 degradation in HEK293T cells” value is reported as “could also be observed in HEK293T cells”. Further, in data set [2], the EC50 (commonly the concentration that produces a half-maximal response) turned out to be 0.991 µM. Besides, the EC50 at 72 h in data set [3] (HEK293T cells) and in data set [3] (RKO WT cells) was above 10 µM in each case.

Source of the values: paper PMC10764104, “Discovery of Molecular Glue Degraders via Isogenic Morphological Profiling” (ACS Chemical Biology, 2023).
